Assays:
primary rat OPCs = assay: OPC-X-screen: high-content imaging of MBP+ OLs and GFAP+ astrocytes in fibrinogen-treated OPCs; format: cell-based; settings: for OPC differentiation to mature MBP+ OLs in the presence of fibrinogen: myelin-promoting compound screen, fibrinogen 1.5 mg/ml, benztropine, clemastine, quetiapine, miconazole, (±)U-50488, DMH1 1 μM, clobetasol 5 μM, XAV-939 0.1 μM; for Cell-fate switch of OPCs to GFAP+ cells by fibrinogen: fibrinogen-treated primary rat OPCs
NOD-MOG35-55 EAE mice = assay: Progressive NOD-MOG35-55 EAE, therapeutic treatment; format: in vivo, mouse
MOG35-55 EAE mice = assay: Chronic MOG35-55 EAE in NG2-CreERTM:RosatdTomato/+ mice, therapeutic treatment; format: in vivo, mouse
[1] = cited from earlier work
[2] = test system: BMP signal transducers SMAD1/5 (phosphorylation); assay: Immunoblot of phospho-SMAD1/5 in fibrinogen-treated primary rat OPCs; format: cell-based
Experimental: (§1) Cells or tissue were lysed in RIPA lysis buffer (Thermo Fisher Scientific) supplemented with protease/phosphatase inhibitor cocktails (Calbiochem) and lysates were cleared by centrifuging at 13,000×g for 15 minutes at 4° C. Equal amounts of protein were loaded in 4%-12% bis-tris gels (Thermo Fisher Scientific) and analyzed by western blotting. Bands were visualized with HRP-conjugated secondary antibodies (Cell Signaling Technology). Densitometry was performed using ImageJ Software (NIH) with values for each band normalized to GAPDH loading controls from the same membrane. Primary antibodies were: Id2 (1:1000, rabbit monoclonal, #M213, CalBioreagents); phospho-Smad1/5 (1:1000, rabbit monoclonal, #9516, Cell Signaling Technology); GAPDH (1:1000, rabbit monoclonal, #2118, Cell Signaling Technology)

BMP target protein ID2 = assay: Immunoblot of ID2 protein in fibrinogen-treated primary rat OPCs; format: cell-based
Experimental: as §1

[3] = fibrinogen alone in the OPC-X assay
[4] = fibrinogen 2.5 mg/ml, three-fold serial dilutions 5 μM to 2 nM, 3 days

fibrinogen
Decrease of MBP+ mature OLs as compared to controls (primary rat OPCs; [3]): ~60% | Increase of GFAP+ astrocyte-like cells as compared to controls (primary rat OPCs; [3]): ~60%

CN1[C@@H]2CC[C@H]1C[C@@H](OC(c1ccccc1)c1ccccc1)C2 [benztropine]
OPC differentiation to mature MBP+ OLs in the presence of fibrinogen (primary rat OPCs; 3 days): did not overcome extrinsic inhibition of OPC differentiation by fibrinogen

c1cc(-c2cnn3cc(-c4ccc(N5CCNCC5)cc4)cnc23)c2cccnc2c1 [LDN-212854]
Group mean of maximum clinical scores (NOD-MOG35-55 EAE mice; 30 days treatment, five-point scale, saline 2.36): 1.75 | Clinical scores (NOD-MOG35-55 EAE mice; treated for 30 days, vs saline): significantly improved | Demyelination in spinal cord (NOD-MOG35-55 EAE mice; vs saline): reduced | Fibrinogen deposition in spinal cord (NOD-MOG35-55 EAE mice; vs saline): reduced | Clinical scores (MOG35-55 EAE mice; 6 mg/kg twice daily for 14 days starting at peak disease, vs saline): significantly improved | Formation of OPC-derived GFAP+ astrocytes (MOG35-55 EAE mice; 14 day treatment, fate mapping): abolished | Proportion of NG2tdTomato+ OPCs differentiated into GST-pi+ mature OLs (MOG35-55 EAE mice; 14 day treatment, fate mapping, vs controls): increased | ID2 expression in NG2 cells in the EAE white matter (MOG35-55 EAE mice; 14 day treatment, vs saline): decreased | Myelin damage (myelin circularity, in vivo 2P imaging) (MOG35-55 EAE mice; chronic, vs saline): markedly reduced | Perivascular NG2 clusters (in vivo 2P imaging) (MOG35-55 EAE mice; chronic, vs saline): markedly reduced | Demyelination in spinal cord (MOG35-55 EAE mice; vs saline): reduced | Fibrinogen deposition in spinal cord (MOG35-55 EAE mice; vs saline): reduced | Water solubility [1]: water-soluble | Formation of GFAP+ astrocytes from fibrinogen-treated OPCs, dose response (primary rat OPCs; [4]): blocked | Mature OL (MBP+) differentiation of fibrinogen-treated OPCs, dose response (primary rat OPCs; [4]): restored mature OL differentiation

CN1CCC[C@@H]1CCO[C@](C)(c1ccccc1)c1ccc(Cl)cc1 [clemastine]
Fibrinogen-induced phosphorylation of SMAD1/5 [2]: did not block | Fibrinogen-induced expression of ID2 (BMP target protein ID2): did not block | OPC differentiation to mature OLs in the presence of fibrinogen (clemastine dose-response) (primary rat OPCs; fibrinogen 2.5 mg/ml, differentiation media without T3 or growth factors, 3 days): did not enhance OPC differentiation to mature OLs in the presence of fibrinogen | Cell-fate switch of OPCs to GFAP+ cells by fibrinogen (primary rat OPCs; 3 days): did not inhibit SMAD1/5 phosphorylation, a key pathway downstream of BMP receptor activation, or rescue OPC cell fate switch to astrocytes | OPC differentiation to mature MBP+ OLs in the presence of fibrinogen (primary rat OPCs; 3 days): did not overcome extrinsic inhibition of OPC differentiation by fibrinogen | Number of MBP+ cells in control conditions (primary rat OPCs; no fibrinogen, differentiation media without T3 or growth factors, 3 days): increased

OCCOCCN1CCN(C2=Nc3ccccc3Sc3ccccc32)CC1 [quetiapine]
OPC differentiation to mature MBP+ OLs in the presence of fibrinogen (primary rat OPCs; 3 days): did not overcome extrinsic inhibition of OPC differentiation by fibrinogen

C[C@H]1C[C@H]2[C@@H]3CCC4=CC(=O)C=C[C@]4(C)[C@@]3(F)[C@@H](O)C[C@]2(C)[C@@]1(O)C(=O)CCl [clobetasol]
OPC differentiation to mature MBP+ OLs in the presence of fibrinogen (primary rat OPCs; 3 days): did not overcome extrinsic inhibition of OPC differentiation by fibrinogen

Clc1ccc(COC(Cn2ccnc2)c2ccc(Cl)cc2Cl)c(Cl)c1 (stereo not drawn) [miconazole]
OPC differentiation to mature MBP+ OLs in the presence of fibrinogen (primary rat OPCs; 3 days): did not overcome extrinsic inhibition of OPC differentiation by fibrinogen

Oc1nc(-c2ccc(C(F)(F)F)cc2)nc2c1CSCC2 [XAV-939]
OPC differentiation to mature MBP+ OLs in the presence of fibrinogen (primary rat OPCs; 3 days): did not overcome extrinsic inhibition of OPC differentiation by fibrinogen

CC(C)Oc1ccc(-c2cnc3c(-c4ccnc5ccccc45)cnn3c2)cc1 [DMH1]
Fibrinogen-induced phosphorylation of SMAD1/5 [2]: blocked | Fibrinogen-induced expression of ID2 (BMP target protein ID2): blocked | Water solubility [1]: not water-soluble | Cell-fate switch of OPCs to GFAP+ cells by fibrinogen (primary rat OPCs; 3 days): abolished | OPC differentiation to mature MBP+ OLs in the presence of fibrinogen (primary rat OPCs; 3 days): restored OPC differentiation to mature OLs to control levels
